Here are results for 20 molecules from US20250228239A1, “MOLECULES HAVING PESTICIDAL UTILITY, AND INTERMEDIATES, COMPOSITIONS, AND PROCESSES, RELATED THERETO” (priority 2024, published 2025).

Assay [1] relates to Cabbage Looper (Trichoplusia ni, TRIPNI). The assay is described as follows: Bioassays on Cabbage Looper (CL), 128-well diet tray assay. In kind it is in vivo. The following applies: Trichoplusia ni. In a few lines: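 Percent mortality, averaged across eight replicate wells, after second-instar larvae (1–5 per well) fed for five to seven days on diet dosed at 50 μg/cm^2. Compound was applied in acetone-water 90:10 and dried; trays kept vented at 25° C under 14:10 photoperiod.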

The test system of assay [2] is Beet Armyworm (Spodoptera exigua, LAPHEG). The assay is described as follows: Bioassays on Beet Armyworm (BAW), 128-well diet tray assay. The format is in vivo. The following applies: Spodoptera exigua. In a few lines: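 Eight diet wells per compound were treated at 50 μg/cm^2 (acetone-water 90:10), dried, then infested with 1–5 second-instar larvae each. After five to seven days at 25 °C under 14:10 photoperiod, mortality was scored and averaged across wells.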

Where [3] appears, read: Cabbage Looper, Table ABC / ABC-DP rating, read-out: CL rating.
Where [4] appears, read: Beet Armyworm, Table ABC / ABC-DP rating, read-out: BAW rating.
[5] abbreviates: Table ABC: Biological Results, species CL, read-out: CL.
Setting [6] is: Table ABC: Biological Results, species BAW, read-out: BAW.
Setting [7] is: Cabbage Looper, rating class, read-out: CL.
Where [8] appears, read: Beet Armyworm, rating class, read-out: BAW.

Structures are written as SMILES. Like-named read-outs stand apart in the source and are kept apart here.

For the molecule `O=C(NCC(F)(F)F)c1cc(NC(=O)[C@@H]2[C@@H](c3ccc(F)c(F)c3)C2(Cl)Cl)ccc1Cl` [F2100, 2-Chloro-5-((1S,3S)-2,2-dichloro-3-(3,4-difluorophenyl)cyclopropane-1-carboxamido)-N-(2,2,2-trifluoroethyl)benzamide], the pest or weed control at 50 µg/cm2 in assay [1] (setting [3]) and in assay [2] (setting [4]) was 50 to 100% throughout.

For `CCNC(=O)c1cc(NC(=O)[C@H]2[C@H](c3ccc(F)c(Cl)c3)C2(Cl)Cl)cc(Cl)c1F` (relative stereo) [F2047, trans-3-Chloro-5-(2,2-dichloro-3-(3-chloro-4-fluorophenyl)cyclopropane-1-carboxamido)-N-ethyl-2-fluorobenzamide], the pest or weed control at 50 µg/cm2 in assay [1] (setting [3]) and in assay [2] (setting [4]) was 50 to 100% throughout.

`O=C(Nc1ccc(F)c(NC(=O)C(F)F)c1F)c1cc(NC(=O)[C@H]2[C@H](c3cc(Cl)cc(Cl)c3)C2(Cl)Cl)ccc1Cl` [F1268, 2-Chloro-5-((1R,3R)-2,2-dichloro-3-(3,5-dichlorophenyl)cyclopropane-1-carboxamido)-N-(3-(2,2-difluoroacetamido)-2,4-difluorophenyl)benzamide]: the pest or weed control at 50 µg/cm2 in assay [1] (setting [5]) and in assay [2] (setting [6]) was 50 to 100% in each case.

For the molecule `CCO[C@H](C)C(=O)Nc1c(F)ccc(NC(=O)c2cc(NC(=O)[C@H]3[C@H](c4ccc(F)c(C(F)(F)F)c4)C3(Cl)Cl)ccc2Cl)c1F` [F1732, 2-Chloro-5-((1R,3R)-2,2-dichloro-3-(4-fluoro-3-(trifluoromethyl)phenyl)cyclopropane-1-carboxamido)-N-(3-((R)-2-ethoxypropanamido)-2,4-difluorophenyl)benzamide], the pest or weed control at 50 µg/cm2 in assay [1] (setting [7]) and in assay [2] (setting [8]) was 50 to 100% in each case.

Consider `O=C(Nc1c(F)ccc(NC(=O)C(F)(F)F)c1F)c1cc(NC(=O)[C@H]2[C@H](c3cc(Cl)c(Cl)c(Cl)c3)C2(Cl)Cl)cc(F)c1Cl` [F1342, 2-Chloro-5-((1R,3R)-2,2-dichloro-3-(3,4,5-trichlorophenyl)cyclopropane-1-carboxamido)-N-(2,6-difluoro-3-(2,2,2-trifluoroacetamido)phenyl)-3-fluorobenzamide], for which the pest or weed control at 50 µg/cm2 in assay [1] (setting [5]) and in assay [2] (setting [6]) was 50 to 100% in each case.

For `O=C(Nc1c(F)ccc(NC(=O)c2cc(NC(=O)[C@H]3[C@H](c4ccc(F)c(C(F)(F)F)c4)C3(Cl)Cl)ccc2Cl)c1F)c1ccc(F)nc1` [F1258, N-(3-(2-Chloro-5-((1R,3R)-2,2-dichloro-3-(4-fluoro-3-(trifluoromethyl)phenyl)cyclopropane-1-carboxamido)benzamido)-2,6-difluorophenyl)-6-fluoronicotinamide], the pest or weed control at 50 µg/cm2 in assay [1] (setting [5]) and in assay [2] (setting [6]) was 50 to 100% in each case.

As for `COc1c(F)ccc(NC(=O)c2cc(NC(=O)[C@H]3[C@H](c4cc(Cl)cc(Cl)c4)C3(Cl)Cl)ccc2Cl)c1F` (relative stereo) [F1171, trans-2-chloro-5-(2,2-dichloro-3-(3,5-dichlorophenyl)cyclopropane-1-carboxamido)-N-(2,4-difluoro-3-methoxyphenyl)benzamide], the pest or weed control at 50 µg/cm2 in assay [1] (setting [5]) and in assay [2] (setting [6]) was 50 to 100% in each case.

As to `O=C1CC(C(=O)Nc2c(F)ccc(NC(=O)c3cc(NC(=O)[C@H]4[C@H](c5cc(Cl)c(Cl)c(Cl)c5)C4(Cl)Cl)ccc3Cl)c2F)C1` [F1649, 2-Chloro-5-((1R,3R)-2,2-dichloro-3-(3,4,5-trichlorophenyl)cyclopropane-1-carboxamido)-N-(2,4-difluoro-3-(3-oxocyclobutane-1-carboxamido)phenyl)benzamide], the pest or weed control at 50 µg/cm2 in assay [1] (setting [7]) and in assay [2] (setting [8]) was 50 to 100% throughout.

In the case of `CC(C)(C)C(=O)Nc1c(F)ccc(NC(=O)c2cc(NC(=O)[C@H]3[C@H](c4ccc(F)c(C(F)(F)F)c4)C3(Cl)Cl)ccc2Cl)c1F` [F1274, 2-Chloro-5-((1R,3R)-2,2-dichloro-3-(4-fluoro-3-(trifluoromethyl)phenyl)cyclopropane-1-carboxamido)-N-(2,4-difluoro-3-pivalamidophenyl)benzamide], the pest or weed control at 50 µg/cm2 in assay [1] (setting [5]) and in assay [2] (setting [6]) was 50 to 100% throughout.

For `O=C(Nc1c(F)ccc(NC(=O)C(F)(F)F)c1F)c1cc(NC(=O)[C@H]2[C@H](c3cc(Cl)c(Cl)c(Cl)c3)C2(Cl)Cl)ccc1Cl` [F1516, 2-Chloro-5-((1R,3R)-2,2-dichloro-3-(3,4,5-trichlorophenyl)cyclopropane-1-carboxamido)-N-(2,6-difluoro-3-(2,2,2-trifluoroacetamido)phenyl)benzamide], the pest or weed control at 50 µg/cm2 in assay [1] (setting [7]) and in assay [2] (setting [8]) was 50 to 100% throughout.

In the case of `CC(=O)Nc1c(F)ccc(NC(=O)c2cc(NC(=O)[C@H]3[C@H](c4ccc(Cl)c(Cl)c4)C3(Cl)Cl)ccc2Cl)c1F` [F1083, N-(3-acetamido-2,4-difluorophenyl)-2-chloro-5-((1R,3R)-2,2-dichloro-3-(3,4-dichlorophenyl)cyclopropane-1-carboxamido)benzamide], the pest or weed control at 50 µg/cm2 in assay [1] (setting [5]) and in assay [2] (setting [6]) was 50 to 100% each time.

As for `CC(=O)Nc1ccc(F)c(NC(=O)c2cc(NC(=O)[C@H]3[C@H](c4cc(Cl)c(Cl)c(Cl)c4)C3(Cl)Cl)cc(C)c2Cl)c1F` [F1524, N-(3-Acetamido-2,6-difluorophenyl)-2-chloro-5-((1R,3R)-2,2-dichloro-3-(3,4,5-trichlorophenyl)cyclopropane-1-carboxamido)-3-methylbenzamide], the pest or weed control at 50 µg/cm2 in assay [1] (setting [7]) and in assay [2] (setting [8]) was 50 to 100% throughout.

As to `O=C(Nc1ccc(F)c(Br)c1F)c1cc(NC(=O)[C@H]2[C@H](c3cc(Cl)cc(Cl)c3)C2(Cl)Cl)ccc1Cl` (relative stereo) [F1307, trans-N-(3-Bromo-2,4-difluorophenyl)-2-chloro-5-(2,2-dichloro-3-(3,5-dichlorophenyl)cyclopropane-1-carboxamido)benzamide], the pest or weed control at 50 µg/cm2 in assay [1] (setting [5]) and in assay [2] (setting [6]) was 50 to 100% in each case.

In the case of `CC(C)(C)OC(=O)Nc1c(F)ccc(NC(=O)c2cc(NC(=O)[C@H]3[C@H](c4cc(Br)cc(C(F)(F)F)c4)C3(Cl)Cl)ccc2Cl)c1F` (relative stereo) [F1073, trans-tert-Butyl-(3-(5-(3-(3-bromo-5-(trifluoromethyl)phenyl)-2,2-dichlorocyclopropane-1-carboxamido)-2-chlorobenzamido)-2,6-difluorophenyl)carbamate], the pest or weed control at 50 µg/cm2 in assay [1] (setting [5]) and in assay [2] (setting [6]) was 50 to 100% throughout.

For `CC(CC(F)(F)F)C(=O)Nc1c(F)ccc(NC(=O)c2cc(NC(=O)[C@H]3[C@H](c4ccc(F)c(C(F)(F)F)c4)C3(Cl)Cl)ccc2Cl)c1F` (stereo partly drawn) [F1835, 2-Chloro-5-((1R,3R)-2,2-dichloro-3-(4-fluoro-3-(trifluoromethyl)phenyl)cyclopropane-1-carboxamido)-N-(2,4-difluoro-3-(4,4,4-trifluoro-2-methylbutanamido)phenyl)benzamide], the pest or weed control at 50 µg/cm2 in assay [1] (setting [3]) and in assay [2] (setting [4]) was 50 to 100% each time.

As to `CC(=O)Nc1c(F)ccc(NC(=O)c2cc(NC(=O)[C@H]3[C@H](c4cc(Cl)c(Cl)c(Cl)c4)C3(Cl)Cl)cc(F)c2F)c1F` [F1433, N-(3-Acetamido-2,4-difluorophenyl)-5-((1R,3R)-2,2-dichloro-3-(3,4,5-trichlorophenyl)cyclopropane-1-carboxamido)-2,3-difluorobenzamide], the pest or weed control at 50 µg/cm2 in assay [1] (setting [7]) and in assay [2] (setting [8]) was 50 to 100% in each case.

With `O=C(Nc1cc(NC(=O)C(F)(F)F)c(F)cc1F)c1cc(NC(=O)[C@H]2[C@H](c3cc(Cl)c(Cl)c(Cl)c3)C2(Cl)Cl)ccc1Cl` [F1519, 2-Chloro-5-((1R,3R)-2,2-dichloro-3-(3,4,5-trichlorophenyl)cyclopropane-1-carboxamido)-N-(2,4-difluoro-5-(2,2,2-trifluoroacetamido)phenyl)benzamide], the pest or weed control at 50 µg/cm2 in assay [1] (setting [7]) and in assay [2] (setting [8]) was 50 to 100% each time.

For `O=C(Nc1cc(NC(=O)C(F)(F)C(F)F)c(F)cc1F)c1cc(NC(=O)[C@H]2[C@H](c3ccc(F)c(C(F)(F)F)c3)C2(Cl)Cl)ccc1Cl` [F1569, 2-Chloro-5-((1R,3R)-2,2-dichloro-3-(4-fluoro-3-(trifluoromethyl)phenyl)cyclopropane-1-carboxamido)-N-(2,4-difluoro-5-(2,2,3,3-tetrafluoropropanamido)phenyl)benzamide], the pest or weed control at 50 µg/cm2 in assay [1] (setting [7]) and in assay [2] (setting [8]) was 50 to 100% throughout.

With `Nc1c(F)ccc(NC(=O)c2cc(NC(=O)[C@H]3[C@H](c4ccc(F)c(Br)c4)C3(Cl)Cl)ccc2Cl)c1F` [F1713, N-(3-Amino-2,4-difluorophenyl)-5-((1R,3R)-3-(3-bromo-4-fluorophenyl)-2,2-dichlorocyclopropane-1-carboxamido)-2-chlorobenzamide], the pest or weed control at 50 µg/cm2 in assay [1] (setting [7]) and in assay [2] (setting [8]) was 50 to 100% throughout.

On to `O=C(Nc1cccc(F)c1[N+](=O)[O-])c1cc(NC(=O)[C@H]2[C@H](c3ccc(F)c(Cl)c3)C2(Cl)Cl)ccc1Cl` [F1081, 2-Chloro-5-((1R,3R)-2,2-dichloro-3-(3-chloro-4-fluorophenyl)cyclopropane-1-carboxamido)-N-(3-fluoro-2-nitrophenyl)benzamide], for which the pest or weed control at 50 µg/cm2 in assay [1] (setting [5]) and in assay [2] (setting [6]) was 50 to 100% in each case.
